Measurements: US7517888B2, “A1 adenosine receptor antagonists” (CV Therapeutics, Inc., priority 2004, dated 2009)
pKi: −log10 of the molar value. Like-named read-outs stand apart in the source and are kept apart here.

How the values were obtained:
[1] = target: T1, Hamster-A1 (DDT1 MF-2) (Mesocricetus auratus, UniProt A0A1U8BVR4); assay: Radioligand binding, hamster A1 AdoR, DDT1 MF-2 membranes
T1 sequence (A0A1U8BVR4 1-326): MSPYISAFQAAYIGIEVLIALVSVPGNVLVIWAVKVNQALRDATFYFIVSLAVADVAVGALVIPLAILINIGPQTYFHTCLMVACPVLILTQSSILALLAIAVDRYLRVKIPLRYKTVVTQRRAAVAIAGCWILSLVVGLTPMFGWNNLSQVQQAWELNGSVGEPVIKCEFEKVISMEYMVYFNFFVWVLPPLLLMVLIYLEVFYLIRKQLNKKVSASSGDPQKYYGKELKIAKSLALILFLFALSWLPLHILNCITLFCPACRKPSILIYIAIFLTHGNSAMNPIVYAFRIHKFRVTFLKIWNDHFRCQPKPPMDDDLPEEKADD
Method: (§1) The cDNAs for human A1, A2A, A2B or A3 AdoRs were prepared by RT-PCR from total RNA of human cells or tissues and sequenced on both strands. The expression vector containing each of these cDNAs and a second vector containing a neomycin or puromycin-resistance gene were introduced to HEK-293 or CHO cells by Lipofectin-Plus (Life Technology). Colonies were selected by growing transfected cells in the presence of neomycin or puromycin. Stably transfected cells were maintained in Dulbecco's modified Eagle's medium (DMEM) or F-12 medium with 10% fetal bovine serum, 100 μg/ml penicillin, 100 μg/ml streptomycin and appropriate concentrations of neomycin or puromycin. These stably transfected cells were referred to as HEK-“AdoR” or CHO-“AdoR” depending on the receptors that they express. The cell lines used routinely were CHO-A1, HEK-A2A, HEK-A2B.and CHO-A3 cells. In addition, hamster DDT1 MF-2 cells that express endogenous A1 AdoRs were also used to determine the binding activities of compounds for A1 AdoRs.
(§2) Monolayers of transfected cells or DDT1 MF-2 were washed with phosphate buffered saline (PBS) and harvested in a buffer containing 10 mM HEPES (pH 7.4), 10 mM EDTA and protease inhibitors. The cells were homogenized in polytron for 1 minute at setting 4 and centrifuged at 29000 g for 15 minutes at 4° C. The cell pellets were washed with a buffer containing 10 mM HEPES (pH7.4), 1 mM EDTA and protease inhibitors, and were resuspended in the same buffer supplemented with 10% sucrose. Frozen aliquots were kept at −80° C.
(§3) The affinities of compounds for A1, A2A, A2B or A3 AdoRs were determined in competition studies using radioligands such as ^3H—CPX (A1 antagonist), or ^3H—CCPA (A1 agonist), ^3H-ZM241385 (A2A antagonist) or ^3H-CGS21680 (A2A agonist), ^3H-ZM241385 (A2B antagonist) or ^125I-AB-MECA (A3 agonist) and membranes of corresponding cells. […] The assays were incubated for 60-90 minutes, stopped by filtration onto GF/B filter plates using Packard Harvester and washed four times with ice-cold TM buffer (10 mM Tris, 1 mM MgCl2, pH 7.4). The amounts of radioligands that bound to the GF/B filter plates were determined by scintillation counting. Nonspecific binding were determined in the presence of 1-10 μM of cold ligands. Bmax and KD values were calculated using GraphPad software.

[2] = target: T2, Human-A1 (CHO-A1) (Homo sapiens, UniProt P30542); assay: Radioligand binding, human A1 AdoR, CHO-A1 membranes
T2 construct: expressed in transfected cells; host or cells: CHO cells, stably transfected (CHO-A1)
T2 sequence (P30542 1-326): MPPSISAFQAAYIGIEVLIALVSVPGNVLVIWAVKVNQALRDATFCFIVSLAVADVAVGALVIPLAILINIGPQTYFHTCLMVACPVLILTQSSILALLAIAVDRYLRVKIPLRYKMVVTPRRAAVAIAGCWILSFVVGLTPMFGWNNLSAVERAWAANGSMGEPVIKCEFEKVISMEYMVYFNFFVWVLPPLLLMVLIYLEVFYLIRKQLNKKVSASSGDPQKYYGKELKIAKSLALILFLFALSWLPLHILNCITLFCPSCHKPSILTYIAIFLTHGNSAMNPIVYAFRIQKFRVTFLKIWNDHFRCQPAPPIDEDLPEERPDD
Method: as §1, §2, §3

[3] = target: T3, Human-A2A (HEK-A2A) (Homo sapiens, UniProt P29274); assay: Radioligand binding, human A2A AdoR, HEK-A2A membranes
T3 construct: expressed in transfected cells; host or cells: HEK-293 cells, stably transfected (HEK-A2A)
T3 sequence (P29274 whole entry): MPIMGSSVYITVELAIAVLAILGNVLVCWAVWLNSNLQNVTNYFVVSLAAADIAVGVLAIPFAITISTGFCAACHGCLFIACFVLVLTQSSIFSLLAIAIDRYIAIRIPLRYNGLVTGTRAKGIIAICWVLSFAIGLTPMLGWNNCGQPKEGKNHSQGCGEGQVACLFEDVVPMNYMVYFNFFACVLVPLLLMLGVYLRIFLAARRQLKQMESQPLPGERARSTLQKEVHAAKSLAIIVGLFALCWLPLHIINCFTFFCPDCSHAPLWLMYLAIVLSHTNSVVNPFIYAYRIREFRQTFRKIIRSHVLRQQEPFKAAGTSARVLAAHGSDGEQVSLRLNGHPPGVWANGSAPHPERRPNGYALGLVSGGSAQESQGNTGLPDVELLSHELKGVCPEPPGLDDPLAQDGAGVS
Method: as §1, §2, §3

[4] = target: T4, Human-A2B (HEK-A2B) (Homo sapiens, UniProt P29275); assay: Radioligand binding, human A2B AdoR, HEK-A2B membranes
T4 construct: expressed in transfected cells; host or cells: HEK-293 cells, stably transfected (HEK-A2B)
T4 sequence (P29275 1-332): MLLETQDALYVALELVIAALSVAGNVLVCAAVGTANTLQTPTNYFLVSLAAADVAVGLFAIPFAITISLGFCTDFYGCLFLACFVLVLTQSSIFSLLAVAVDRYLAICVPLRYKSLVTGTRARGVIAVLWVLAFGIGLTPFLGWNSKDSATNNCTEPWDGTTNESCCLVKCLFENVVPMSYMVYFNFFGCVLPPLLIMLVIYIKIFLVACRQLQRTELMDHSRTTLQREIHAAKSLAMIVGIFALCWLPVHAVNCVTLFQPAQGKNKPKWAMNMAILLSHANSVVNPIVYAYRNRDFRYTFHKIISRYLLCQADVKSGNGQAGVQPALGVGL
Method: as §1, §2
[…] The amounts of radioligands that bound to the GF/B filter plates were determined by scintillation counting. Nonspecific binding were determined in the presence of 1-10 μM of cold ligands. Bmax and KD values were calculated using GraphPad software.

[5] = 3H-CPX radioligand, DDT1 MF-2 membranes, read-out: Ki (low) Hamster-A1 DDT1 MF-2
[6] = 3H-CPX radioligand, CHO-A1 membranes, read-out: Ki (low) Human-A1 CHO-A1
[7] = 3H-ZM241385 radioligand, HEK-A2A membranes, read-out: Ki (low) Human-A2A HEK-A2A
[8] = 3H-CGS21680 radioligand (footnote c), HEK-A2B membranes, read-out: Ki (low) Human-A2B HEK-A2B

`Cn1c(-c2ccc(O)cc2)nc2c(NC3CCCC3)ncnc21` [4-[6-(cyclopentylamino)-9-methylpurin-8-yl]phenol] was tested, and the pKi [1] was 8.40, the pKi [2] was 8.05 and the pKi [3] was < 5.30. The pKi [4] was < 5.18.

For `Cn1c(-c2cccc(Cl)c2)nc2c(NC3CCCC3)ncnc21` [[8-(3-chlorophenyl)-9-methylpurin-6-yl]cyclopentylamine], the pKi [1, 5] was 8.52, the pKi [2, 6] was 8.30 and the pKi [3, 7] was < 5.30. The pKi [4, 8] was < 5.18.

`Cn1c(-c2ccc(Cl)cc2)nc2c(NC3CCCC3)ncnc21` [[8-(4-chlorophenyl)-9-methylpurin-6-yl]cyclopentylamine] was tested, and the pKi [1, 5] was 8.00, the pKi [2, 6] was 8.05 and the pKi [3, 7] was < 5.30. For the same compound, the pKi [4, 8] was < 5.18.

With `CCCn1c(-c2ccccc2)nc2c(NC3CCCCC3)ncnc21` [cyclohexyl(8-phenyl-9-propylpurin-6-yl)amine] the pKi [1, 5] was 7.96, the pKi [2, 6] was 7.60 and the pKi [3, 7] was < 5.30. The pKi [4, 8] was < 5.18.

With `CCn1c(-c2ccccc2)nc2c(NC3CCCCC3)ncnc21` [cyclohexyl(9-ethyl-8-phenylpurin-6-yl)amine] the pKi [1, 5] was 8.40, the pKi [2, 6] was 7.96 and the pKi [3, 7] was < 5.30. For the same compound, the pKi [4, 8] was < 5.18.

For `Cn1c(-c2ccccc2)nc2c(NC3CCCCC3)ncnc21` [cyclohexyl(9-methyl-8-phenylpurin-6-yl)amine], the pKi [1, 5] was 9.00, the pKi [2, 6] was 8.70 and the pKi [3, 7] was < 5.30. For the same compound, the pKi [4, 8] was < 5.18.

In the case of `Cn1c(-c2cccnc2)nc2c(NC3CCCC3)ncnc21` [cyclopentyl(9-methyl-8-(3-pyridyl)purin-6-yl)amine], the pKi [1, 5] was 7.08, the pKi [2, 6] was 6.74 and the pKi [3, 7] was < 5.30. For the same compound, the pKi [4, 8] was < 5.18.

`Cn1c(-c2ccc(F)cc2)nc2c(NC3CCCC3)ncnc21` [cyclopentyl[8-(4-fluorophenyl)-9-methylpurin-6-yl]amine] was tested, and the pKi [1, 5] was 9.00, the pKi [2, 6] was 8.30 and the pKi [3, 7] was < 5.30. For the same compound, the pKi [4, 8] was < 5.18.

In the case of `COc1ccc(-c2nc3c(NC4CCCC4)ncnc3n2C)cc1` [cyclopentyl[8-(4-methoxyphenyl)-9-methylpurin-6-yl]amine], the pKi [1, 5] was 7.66, the pKi [2, 6] was 7.49 and the pKi [3, 7] was < 5.30. The pKi [4, 8] was < 5.18.

`Cc1ccccc1-c1nc2c(NC3CCCC3)ncnc2n1C` [cyclopentyl[9-methyl-8-(2-methylphenyl)purin-6-yl]amine] was tested, and the pKi [1, 5] was 7.70, the pKi [2, 6] was 7.38 and the pKi [3, 7] was < 5.30. For the same compound, the pKi [4, 8] was < 5.18.

With `Cc1cccc(-c2nc3c(NC4CCCC4)ncnc3n2C)c1` [cyclopentyl[9-methyl-8-(3-methylphenyl)purin-6-yl]amine] the pKi [1, 5] was 8.70, the pKi [2, 6] was 8.30 and the pKi [3, 7] was < 5.30. The pKi [4, 8] was < 5.18.

With `Cc1ccc(-c2nc3c(NC4CCCC4)ncnc3n2C)cc1` [cyclopentyl[9-methyl-8-(4-methylphenyl)purin-6-yl]amine] the pKi [1, 5] was 8.52, the pKi [2, 6] was 8.30 and the pKi [3, 7] was < 5.30. The pKi [4, 8] was < 5.18.
